From article PMC11219871, “Epigenetic-based differentiation therapy for Acute Myeloid Leukemia” (Nature Communications, 2024) come the findings set out here.

“And” between values parts separate entries of the source, which are not always exact repeats. Equal entries are not always repeated. Where two headings read alike, the source gives them in different places.

For one assay, the target named is DNMT1 (Homo sapiens, UniProt P26358). Kind of assay: Epigenetic panel (BPS Bioscience); DNMT1 TR-FRET IC50. Type of assay: biochemical. As to the method: DNMT1 and G9a IC50 values were measured using time-resolved fluorescence energy transfer assays, as described previously[18],[25],[26].
Chain of DNMT1 (P26358 whole entry): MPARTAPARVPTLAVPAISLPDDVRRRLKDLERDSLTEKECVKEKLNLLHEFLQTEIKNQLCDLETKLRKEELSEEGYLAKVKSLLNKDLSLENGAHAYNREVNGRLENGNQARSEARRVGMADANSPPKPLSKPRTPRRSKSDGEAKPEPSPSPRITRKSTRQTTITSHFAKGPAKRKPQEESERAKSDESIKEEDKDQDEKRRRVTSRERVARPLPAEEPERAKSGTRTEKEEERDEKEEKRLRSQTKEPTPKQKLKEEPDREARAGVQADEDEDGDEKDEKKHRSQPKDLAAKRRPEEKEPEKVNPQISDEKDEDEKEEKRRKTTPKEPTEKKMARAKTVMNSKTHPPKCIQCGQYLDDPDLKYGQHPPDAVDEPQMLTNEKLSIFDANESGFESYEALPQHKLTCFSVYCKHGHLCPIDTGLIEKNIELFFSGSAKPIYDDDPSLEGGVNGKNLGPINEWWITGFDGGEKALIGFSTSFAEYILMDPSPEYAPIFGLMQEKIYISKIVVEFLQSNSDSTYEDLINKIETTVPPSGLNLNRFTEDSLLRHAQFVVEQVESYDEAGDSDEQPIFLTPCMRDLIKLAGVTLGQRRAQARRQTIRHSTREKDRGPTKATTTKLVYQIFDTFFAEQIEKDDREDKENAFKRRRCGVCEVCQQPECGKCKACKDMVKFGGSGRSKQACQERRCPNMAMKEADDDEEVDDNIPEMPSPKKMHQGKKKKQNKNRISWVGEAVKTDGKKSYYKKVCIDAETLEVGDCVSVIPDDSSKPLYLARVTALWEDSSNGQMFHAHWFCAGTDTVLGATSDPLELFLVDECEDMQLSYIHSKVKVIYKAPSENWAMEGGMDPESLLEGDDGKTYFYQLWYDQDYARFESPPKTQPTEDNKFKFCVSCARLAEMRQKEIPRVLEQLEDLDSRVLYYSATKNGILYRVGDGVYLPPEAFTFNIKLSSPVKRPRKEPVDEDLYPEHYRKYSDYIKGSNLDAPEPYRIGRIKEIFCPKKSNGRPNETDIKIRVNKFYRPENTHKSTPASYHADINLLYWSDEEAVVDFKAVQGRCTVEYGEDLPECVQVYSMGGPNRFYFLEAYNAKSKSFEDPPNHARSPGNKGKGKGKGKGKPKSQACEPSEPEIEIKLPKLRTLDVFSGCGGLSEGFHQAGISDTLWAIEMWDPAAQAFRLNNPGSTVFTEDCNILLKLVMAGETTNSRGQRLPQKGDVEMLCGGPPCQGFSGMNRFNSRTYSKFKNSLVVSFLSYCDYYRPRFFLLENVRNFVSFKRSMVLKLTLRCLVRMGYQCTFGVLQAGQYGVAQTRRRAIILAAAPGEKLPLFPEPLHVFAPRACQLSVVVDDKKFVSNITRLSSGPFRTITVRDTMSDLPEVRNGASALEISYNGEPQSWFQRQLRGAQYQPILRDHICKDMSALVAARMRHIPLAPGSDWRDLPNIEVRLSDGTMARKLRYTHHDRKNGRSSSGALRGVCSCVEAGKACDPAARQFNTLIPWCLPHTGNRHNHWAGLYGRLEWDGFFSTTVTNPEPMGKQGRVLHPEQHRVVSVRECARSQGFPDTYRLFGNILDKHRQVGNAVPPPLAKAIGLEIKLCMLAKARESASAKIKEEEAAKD
Binding experiments were performed in duplicate at a concentration of 10 μM.

A further assay concerns the target T1, HDAC10 (Homo sapiens, UniProt Q969S8).
T1 construct: purchased Eurofins (contracted assay service)
T1 sequence (Q969S8 1-669): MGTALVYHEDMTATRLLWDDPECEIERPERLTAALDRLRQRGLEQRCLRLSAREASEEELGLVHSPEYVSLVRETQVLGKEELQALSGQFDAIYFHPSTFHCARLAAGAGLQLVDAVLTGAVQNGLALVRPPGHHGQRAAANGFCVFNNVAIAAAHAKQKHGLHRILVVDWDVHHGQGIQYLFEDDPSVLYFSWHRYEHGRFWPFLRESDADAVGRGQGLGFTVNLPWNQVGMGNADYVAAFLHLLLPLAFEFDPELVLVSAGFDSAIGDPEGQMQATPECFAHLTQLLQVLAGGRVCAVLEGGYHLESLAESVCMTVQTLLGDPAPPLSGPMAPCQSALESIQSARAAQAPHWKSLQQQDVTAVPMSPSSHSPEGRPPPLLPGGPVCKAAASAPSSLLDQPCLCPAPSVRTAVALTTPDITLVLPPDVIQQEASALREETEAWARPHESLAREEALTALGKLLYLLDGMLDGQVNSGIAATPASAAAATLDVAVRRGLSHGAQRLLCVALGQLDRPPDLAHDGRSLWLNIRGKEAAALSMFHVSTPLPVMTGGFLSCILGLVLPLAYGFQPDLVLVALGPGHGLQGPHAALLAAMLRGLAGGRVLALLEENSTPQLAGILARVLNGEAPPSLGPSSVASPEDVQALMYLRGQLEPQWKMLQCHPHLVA
The experiment in a line: HDAC assay (Eurofins). It is filed as biochemical.

The test system of assay [1] is LINE-1 DNA methylation in MOLM-13. Kind of assay: LINE-1 pyrosequencing. It is filed as cell-based, human. As to the method:
DNA methylation of the repetitive element LINE-1 was analyzed using a pyrosequencing technique. […] Cells were washed twice with PBS, and then genomic DNA was extracted using a DNA Kit (Nucleo Spin Tissue, Cat No 74095250, Macherey-Nagel) following the manufacturer's instructions. DNA purity and concentration were measured using a NanoDrop spectrophotometer (Thermo Scientific). A 1 μg amount of genomic DNA was treated and modified using a CpGenome DNA modification Kit (Cat No S7820, Chemicon International) following the manufacturer's instructions. […] [NT]) in a final volume of 25 μL. The resulting biotinylated PCR products were immobilized to Streptavidin Sepharose ® High-Performance beads (GE Healthcare) and processed to yield high-quality ssDNA using the PyroMark Vacuum Prep Workstation (Biotage) according to the manufacturer's instructions. The pyrosequencing reactions were performed using the PyromarkTM ID (Biotage), and sequence analysis was performed using the PyroQ-CpG analysis software (Biotage).

Another assay has as its system HL-60. Kind of assay: CUT&RUN of BRD4, H3K27Ac and H3K9Ac. Type of assay: cell-based, human. The note with it: HL-60, 12 h. As to the method: CUT&RUN was performed with the kit CUTANA ChIC/CUT&RUN (Epicypher, 14-1048) following the manufacturer’s instructions. Briefly, 0.5 million of HL-60 cells were harvested and resuspended in 100ul wash buffer [20 mM HEPES pH 7.5, 150 mM NaCl, 0.5 mM Spermidine, supplemented with Protease Inhibitor EDTA-Free tablet (Roche 11836170001)]. Activated Concanavalin A was incubated with cells at room temperature for 10 min to let the cells bind to the beads. For each target protein factor, 0.5 μg of BRD4 CUTANA CUT&RUN antibody (Cat No 13-2003, Epicypher), Acetyl-Histone H3 (Lys 9) (C5B11) rabbit monoclonal antibody diluted 1:50 (Cat No 9649 T, Cell Signaling) or Acetyl-Histone H3 (Lys 27) (D5E4) XP rabbit monoclonal antibody diluted 1:100 (Cat No 8173T, Cell Signaling) was added to each sample and incubated in the antibody buffer (wash buffer +0.01% Digitonin and 2 mM EDTA) overnight at 4 °C. Isotype control IgG was used as a negative control. The beads were then washed twice with digitonin buffer [wash buffer +0.01% Digitonin] and 2.5 μL pAG-MNase was added to each sample. After ten minutes of incubation at room temperature, excessive pAG-MNase was washed out by a two-time digitonin buffer wash. Then targeted chromatin was digested and released from cells by 2 h of incubation with the presence of 2 mM CaCl2 at 4 °C. After incubation with stop buffer [340 mM NaCl, 20 mM EDTA, 4 mM EGTA, 50 μg/mL RNase A, 50 μg/mL Glycogen] for 10 min at 37 °C the supernatant containing CUT&RUN-enriched DNA was purified using the CUTANA DNA Purification kit (Epicypher). Finally, Illumina sequencing libraries were prepared from 6 ng of purified CUT&RUN DNA using NEBNext UltraTM II DNA Library Prep Kit for Illumina, following the manufacturer’s instructions. For BRD4, some modifications were added following the protocol of Nan Liu (Harvard University; 10.17504/protocols.io.wvgfe3w). Libraries were sequenced using NEXTseq500 (Illumina).
The Cut&Run samples were analyzed using the CUT&RUN tools pipeline with default settings and no filtering for 120 bp fragments. Peak calling was performed on deduplicated reads with macs2 version 2.2.6 using the respective IgG samples as control, narrow peak calling and paired-end settings, and a threshold of q = 0.01.
Specifically, 12 chromatin states, based on the combination of 6 histone marks, for 38 AML samples were used[59]. The vast majority of the regions could be entirely annotated to a single chromatin state while some could be entirely annotated to a single chromatin state after the replacement of consecutive chromatin states with similar characteristics with one of them (i.e combination of Transcription Transition / Transcription Elongation / Weak Transcription to Transcription Transition or combination of Heterochromatin; Represesed/ Heterochromatin; Low Signal to Heterochromatin; Repressed etc). The regions that couldn’t be entirely annotated to a single chromatin state or simplified chromatin state were removed. […] We then calculated the percentage of each chromatin state taking into account the width of the regions. As background, we used all the regions of each AML sample and we calculated the percentage of the chromatin states similarly. Finally, we calculated the fold change of each chromatin state as a percentage in the sample to a percentage in the background AML sample.

One may read the inhibition as the share of the control response that was lost under treatment. For orientation: IC50 means the point on the concentration scale where inhibition reaches its midpoint. For `COc1cc2nc(-c3ccc(C)o3)cc(NCC3CCN(c4ncc(C(=O)NO)cn4)CC3)c2cc1OC` [CM-444, 2-[4-[[[6,7-dimethoxy-2-(5-methyl-2-furyl)-4-quinolyl]amino]methyl]-1-piperidyl]pyrimidine-5-carbohydroxamic acid], the inhibition at 10 µM against DNMT1 was determined as 96%. At DNMT1 (as printed in Fig. 1B, read-out: IC50), the IC50 was 2200 nM. In addition, the half-maximal inhibitory concentration (IC50) at DNMT1 (read-out: DNMT1 IC50) turned out to be 2160 nM. At HDAC10, this compound returned an IC50 of 15 nM and an inhibition at 10 µM of 96%. In assay [1] (MOLM-13, 48 hours), the “LINE-1 methylation (%) CG Position 1” value is on record as 100%; the “LINE-1 methylation (%) CG Position 2” value was 83% and 79%; the “LINE-1 methylation (%) CG Position 3” value came to 100%; the “LINE-1 methylation (%) CG Position 4” value came to 100%. The “LINE-1 methylation (%) CG Position 5” value in assay [1] (MOLM-13, 48 hours) was 74% and 78%. In addition, in assay [1] (MOLM-13, 5 days), the “LINE-1 methylation (%) CG Position 1” value stood at 62%; the “LINE-1 methylation (%) CG Position 2” value is 60% and 68%; the “LINE-1 methylation (%) CG Position 3” value is 69% and 73%; the “LINE-1 methylation (%) CG Position 4” value was 74% and 76%. The “LINE-1 methylation (%) CG Position 5” value in assay [1] (MOLM-13, 5 days) was 53% and 55%. Moreover, in the assay with HL-60, the “BRD4 CUT&RUN peaks” value came to 19570, the “H3K9Ac CUT&RUN peaks” value turned out to be 7568 and the “H3K27Ac CUT&RUN peaks” value amounted to 48991.
For `COc1cc2nc(-c3cc(C)oc3C)cc(NCC3CCN(c4ncc(C(=O)NO)cn4)CC3)c2cc1OC` [CM-1758, 2-[4-[[[2-(2,5-dimethyl-3-furyl)-6,7-dimethoxy-4-quinolyl]amino]methyl] -1-piperidyl]pyrimidine-5-carbohydroxamic acid], testing at 10 µM at DNMT1 gave an inhibition of 66%. At DNMT1 (read-out: DNMT1 IC50), the IC50 was 22600 nM. At HDAC10, this compound gave a half-inhibitory concentration (IC50) of 29 nM and an inhibition at 10 µM of 98%. Further, in assay [1] (MOLM-13, 48 hours), the “LINE-1 methylation (%) CG Position 1” value was 99% and 97%; the “LINE-1 methylation (%) CG Position 2” value was 85% and 81%; the “LINE-1 methylation (%) CG Position 3” value was 100% and 96%; the “LINE-1 methylation (%) CG Position 4” value worked out at 100%. Also, in assay [1] (MOLM-13, 48 hours), the “LINE-1 methylation (%) CG Position 5” value is 70% and 82%. Further, in assay [1] (MOLM-13, 5 days), the “LINE-1 methylation (%) CG Position 1” value was 69% and 59%; the “LINE-1 methylation (%) CG Position 2” value is 63% and 69%; the “LINE-1 methylation (%) CG Position 3” value is 78% and 80%; the “LINE-1 methylation (%) CG Position 4” value is 83% and 87%. Moreover, the “LINE-1 methylation (%) CG Position 5” value in assay [1] (MOLM-13, 5 days) was 58% and 54%.
On to `Cc1[nH]c2ccccc2c1CCNCc1ccc(/C=C/C(=O)NO)cc1` [Panobinostat, reference compound], for which, in the assay with HL-60, the “BRD4 CUT&RUN peaks” value is 16030, the “H3K9Ac CUT&RUN peaks” value was 32775 and the “H3K27Ac CUT&RUN peaks” value was found to be 26959.
